The source of these data is ChEMBL document CHEMBL1135807, “2,5'-Disubstituted adenosine derivatives: evaluation of selectivity and efficacy for the adenosine A(1), A(2A), and A(3) receptor” (J Med Chem, 2002).

Experiment [1] addresses Adenosine receptor A2a (Rattus norvegicus, UniProt P30543).
Description: Binding affinity at Adenosine A2A receptor in rat striatal membrane by [3H]ZM-241385 displacement.
In experiment [2] the target is Adenosine receptor A2a (Homo sapiens, UniProt P29274). As to the kind of experiment: G-protein activation in human Adenosine A2A receptor expressed in CHO cells using cAMP assay. Format: functional, cell-based. On the technique in general: Cyclic AMP is a second messenger, typically raised through Gs and lowered through Gi signalling.
Sequence of Adenosine receptor A2a (Homo sapiens, UniProt P29274) (P29274 whole entry): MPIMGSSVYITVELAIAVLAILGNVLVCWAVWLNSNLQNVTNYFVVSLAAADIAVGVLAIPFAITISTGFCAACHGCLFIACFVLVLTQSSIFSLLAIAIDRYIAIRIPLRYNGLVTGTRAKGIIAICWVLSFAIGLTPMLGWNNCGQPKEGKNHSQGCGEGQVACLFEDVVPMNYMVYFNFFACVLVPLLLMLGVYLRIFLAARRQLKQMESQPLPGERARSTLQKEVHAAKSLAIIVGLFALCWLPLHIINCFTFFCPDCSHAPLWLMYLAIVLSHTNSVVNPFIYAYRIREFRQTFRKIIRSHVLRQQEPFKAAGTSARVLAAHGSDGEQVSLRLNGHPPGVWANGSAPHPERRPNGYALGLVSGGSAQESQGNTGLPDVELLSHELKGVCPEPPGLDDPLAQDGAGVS
The target of experiment [3] is T1, Adenosine receptor A1 (Rattus norvegicus) (UniProt P25099).
T1 sequence (whole entry): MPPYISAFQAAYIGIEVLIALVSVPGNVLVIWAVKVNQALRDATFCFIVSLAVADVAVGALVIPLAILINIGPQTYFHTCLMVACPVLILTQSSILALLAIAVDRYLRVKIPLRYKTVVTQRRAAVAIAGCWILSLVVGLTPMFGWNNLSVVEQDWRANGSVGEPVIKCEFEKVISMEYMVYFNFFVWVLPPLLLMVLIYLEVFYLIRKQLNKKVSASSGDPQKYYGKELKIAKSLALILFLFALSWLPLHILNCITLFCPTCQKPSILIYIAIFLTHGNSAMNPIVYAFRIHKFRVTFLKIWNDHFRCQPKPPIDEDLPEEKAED
The experiment can be described thus: Displacement of [3H]DPCPX from Adenosine A1 receptor in rat cortical membrane at 10e-5 M. The format is cell membranes. In general terms: Displacement assays read how much labelled ligand stays bound in the presence of the test substance.

Experiment [4] concerns the target T1, Adenosine receptor A1 (Rattus norvegicus). As to the kind of experiment: Ability to displace [3H]DPCPX from Adenosine A1 receptor in rat cortical membrane at 10e-5 M. Format: cell membranes.
In a further experiment the target is T2, Adenosine receptor A3 (Homo sapiens, UniProt P0DMS8).
T2 sequence (P0DMS8 whole entry): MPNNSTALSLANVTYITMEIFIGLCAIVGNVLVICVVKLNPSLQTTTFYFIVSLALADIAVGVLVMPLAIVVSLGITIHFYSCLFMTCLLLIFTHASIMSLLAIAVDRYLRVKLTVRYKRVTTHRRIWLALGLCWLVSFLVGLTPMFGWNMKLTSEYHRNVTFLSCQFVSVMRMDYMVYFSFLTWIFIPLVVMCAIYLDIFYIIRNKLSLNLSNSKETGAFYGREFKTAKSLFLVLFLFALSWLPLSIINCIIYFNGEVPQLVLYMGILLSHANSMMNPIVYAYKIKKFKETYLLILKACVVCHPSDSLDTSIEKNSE
As to the kind of experiment: biochemical.

The target in experiment [5] is T3, Adenosine receptor A3 (Homo sapiens) (UniProt P0DMS8).
T3 sequence (whole entry): T2 sequence (P0DMS8 whole entry)
The experiment can be described thus: % inhibition of forskolin induced (10 uM) cAMP production compared to C1-IB-MECA through Adenosine A3 receptor expressed in CHO cells at 30 uM. The format is functional, cell-based.

A further experiment addresses T4, Adenosine receptor A1 (Rattus norvegicus, UniProt P25099).
T4 sequence (P25099 whole entry): T1 sequence (whole entry)
As to the kind of experiment: Ability to displace [3H]DPCPX from Adenosine A1 receptor in rat cortical membrane. Format: cell membranes.

Experiment [6] addresses T3, Adenosine receptor A3 (Homo sapiens). As to the kind of experiment: Percent inhibition of forskolin induced (10 uM) cAMP production compared to C1-IB-MECA through Adenosine A3 receptor expressed in CHO cells at 100 uM. Format: functional, cell-based.

The term Ki denotes the dissociation constant of the complex between target and ligand, obtained from inhibition or displacement. By EC50 is commonly meant the concentration at which the effect is half-maximal. A low value points to greater potency. By Emax is commonly meant the maximal effect, on the per cent scale that the assay sets.

Sequence of Adenosine receptor A2a (Rattus norvegicus, UniProt P30543) (P30543 whole entry): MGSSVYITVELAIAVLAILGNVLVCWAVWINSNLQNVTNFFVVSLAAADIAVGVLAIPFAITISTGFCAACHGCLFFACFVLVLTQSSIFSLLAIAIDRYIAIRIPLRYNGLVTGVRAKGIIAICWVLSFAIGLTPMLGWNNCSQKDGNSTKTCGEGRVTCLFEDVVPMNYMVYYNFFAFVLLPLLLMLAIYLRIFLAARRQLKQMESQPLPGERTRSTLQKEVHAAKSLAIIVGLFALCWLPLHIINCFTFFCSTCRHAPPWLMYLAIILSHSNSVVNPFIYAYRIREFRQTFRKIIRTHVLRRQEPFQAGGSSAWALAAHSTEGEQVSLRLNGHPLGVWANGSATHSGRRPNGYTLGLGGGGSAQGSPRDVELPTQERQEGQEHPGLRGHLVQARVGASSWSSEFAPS

On Adenosine receptor A2a [1], `CSC[C@H]1O[C@@H](n2cnc3c(N)nc(I)nc32)[C@H](O)[C@@H]1O` showed a Ki of 3.9 µM.
In turn, `CCCCC#Cc1nc(N)c2ncn([C@@H]3O[C@H](CSC)[C@@H](O)[C@H]3O)c2n1` showed an EC50 at Adenosine receptor A2a [2] of 0.7 µM. On Adenosine receptor A2a [1], this compound displayed a Ki of 0.06 µM.
`CCCCC#Cc1nc(N)c2ncn([C@@H]3O[C@H](CSCCC)[C@@H](O)[C@H]3O)c2n1` yielded an EC50 on Adenosine receptor A2a [2] of 0.8 µM. The Displacement in experiment [3] was determined as 46.5%. The same compound had a Ki at Adenosine receptor A2a [1] of 0.17 µM.
In experiment [4], `CC(C)C/C=N/Nc1nc(N)c2ncn([C@@H]3O[C@H](CO)[C@@H](O)[C@H]3O)c2n1` yielded a Displacement of 18.9%. In addition, the Ki is 0.0383 µM at Adenosine receptor A3 and 0.02 µM at Adenosine receptor A2a [1]. The compound also had an EC50 at Adenosine receptor A2a [2] of 1.1 µM.
With `CC(C)C/C=N/Nc1nc(N)c2ncn([C@@H]3O[C@H](CSC(C)C)[C@@H](O)[C@H]3O)c2n1`, the Ki at Adenosine receptor A3 worked out at 0.409 µM; on Adenosine receptor A2a [1] it was 1.8 µM. This compound returned an EC50 at Adenosine receptor A2a [2] of 10.4 µM. The same compound came in with an Emax in experiment [5] of 26%. This compound also showed a Displacement in experiment [3] of 13%.
Turning to `CCSC[C@H]1O[C@@H](n2cnc3c(N)nc(I)nc32)[C@H](O)[C@@H]1O`, the Ki is 0.386 µM at Adenosine receptor A1 and 1.2 µM at Adenosine receptor A2a [1].
`Nc1nc(I)nc2c1ncn2[C@@H]1O[C@H](CO)[C@@H](O)[C@H]1O`: the Displacement in experiment [4] stood at 36.1%.
For `CCCSC[C@H]1O[C@@H](n2cnc3c(N)nc(I)nc32)[C@H](O)[C@@H]1O`, the Ki was 1.05 µM at Adenosine receptor A1 and 0.44 µM at Adenosine receptor A2a [1].
`CCCSC[C@H]1O[C@@H](n2cnc3c(N)nc(N/N=C/CC(C)C)nc32)[C@H](O)[C@@H]1O` had a Displacement in experiment [4] of 22%. Also, the Ki at Adenosine receptor A3 was found to be 0.697 µM; at Adenosine receptor A2a [1], 1.5 µM. At Adenosine receptor A2a [2], this compound displayed an EC50 of 12.9 µM. The compound also displayed an Emax in experiment [6] of 16%.
Consider `CC(C)SC[C@H]1O[C@@H](n2cnc3c(N)nc(I)nc32)[C@H](O)[C@@H]1O`, for which the Displacement in experiment [4] was 56.2%. Further, on Adenosine receptor A2a [1], the Ki is 0.82 µM.
`CCCCC#Cc1nc(N)c2ncn([C@@H]3O[C@H](CSC(C)C)[C@@H](O)[C@H]3O)c2n1` came in with an EC50 at Adenosine receptor A2a [2] of 3.6 µM. Moreover, the Ki is 1.27 µM at Adenosine receptor A1 and 0.22 µM at Adenosine receptor A2a [1].
In the case of `CCCCC#Cc1nc(N)c2ncn([C@@H]3O[C@H](CSCC)[C@@H](O)[C@H]3O)c2n1`, the response on Adenosine receptor A2a [2] was half-maximal at 0.5 µM (EC50). Besides, the Ki on Adenosine receptor A1 turned out to be 2.18 µM; on Adenosine receptor A2a [1], 0.11 µM.
In the case of `CSC[C@H]1O[C@@H](n2cnc3c(N)nc(N/N=C/CC(C)C)nc32)[C@H](O)[C@@H]1O`, the Displacement in experiment [4] was found to be 18.9%. Moreover, the values for the Ki at Adenosine receptor A3 and on Adenosine receptor A2a [1] were 0.253 µM and 0.22 µM, respectively. This compound registered an EC50 at Adenosine receptor A2a [2] of 5 µM. In experiment [5], this compound displayed an Emax of 41%.
`CCSC[C@H]1O[C@@H](n2cnc3c(N)nc(N/N=C/CC(C)C)nc32)[C@H](O)[C@@H]1O`: the Displacement in experiment [4] came to 21.2%. Further, the Ki came to 0.814 µM on Adenosine receptor A3 and 0.5 µM at Adenosine receptor A2a [1]. The same compound had an EC50 on Adenosine receptor A2a [2] of 7.5 µM. The Emax in experiment [6] was determined as 7%.
